Results: paper PMC5677544 (Analytical chemistry, 2017)
Where two headings read alike, the source gives them in different places. One block for each compound: values may come before it.

Legend:
Assay in all cases: ESI-MS titration
Assay type in all cases: binding
β-2-microglobulin (β2m) [1] = target: T1, β-2-microglobulin (β2m) (Homo sapiens, UniProt P61769)
β-2-microglobulin (β2m) [2] = target: T1, β-2-microglobulin (β2m); remark: listed apart in the source
β-2-microglobulin (β2m) [3] = target: T1, β-2-microglobulin (β2m); remark: listed apart in the source

- Kd (β-2-microglobulin (β2m) [1]): 40 ± 2 µM
Compound: Cc1ccc(C(=O)Nc2ccc(S(=O)(=O)O)c3cc(S(=O)(=O)O)cc(S(=O)(=O)O)c23)cc1NC(=O)c1cccc(NC(=O)Nc2cccc(C(=O)Nc3cc(C(=O)Nc4ccc(S(=O)(=O)O)c5cc(S(=O)(=O)O)cc(S(=O)(=O)O)c45)ccc3C)c2)c1 [suramin]

- Kd (β-2-microglobulin (β2m) [2]): 200 ± 20 µM
Compound: C[C@H]1c2cccc(O)c2C(=O)C2=C(O)[C@]3(O)C(=O)C(C(N)=O)=C(O)[C@@H](N(C)C)[C@@H]3[C@@H](O)[C@@H]21 [doxycycline]

- Kd (β-2-microglobulin (β2m) [3]): 250 ± 25 µM
Compound: CO[C@H]1/C=C/O[C@@]2(C)Oc3c(C)c(O)c4c(O)c(cc(O)c4c3C2=O)NC(=O)/C(C)=C\C=C\[C@H](C)[C@H](O)[C@@H](C)[C@@H](O)[C@@H](C)[C@H](OC(C)=O)[C@@H]1C [rifamycin SV]
